Assay results: patent US20190015379A1, “USE OF DIANHYDROGALACTITOL AND ANALOGS AND DERIVATIVES THEREOF, TOGETHER WITH RADIATION, TO TREAT NON-SMALL-CELL CARCINOMA OF THE LUNG AND GLIOBLASTOMA MULTIFORME AND SUPPRESS PROLIFERATION OF CANCER STEM CELLS” (DelMar Pharmaceuticals, Inc., priority 2014, published 2019)

What was measured:
GBM = details: GBM; Eagan (1979), Stupp (2005); cited from earlier work
[1] = test system: A549 human lung adenocarcinoma xenograft tumors; test: A549 NSCLC xenograft tumor growth in Rag2 mice; format: in vivo, female Rag2 mice
Procedure: The purpose of the study reported in this Example is to evaluate the activity of dianhydrogalactitol in in vivo models of drug-resistant NSCLC in comparison to other drugs, including cisplatin. Rag2 mice bearing subcutaneous human lung adenocarcinoma xenograft tumors of either TKI-resistant (H1975) or TKI-sensitive (A549) origin were treated.
Two human NSCLC cell lines, A549 (TKI-sensitive) and H1975 (TKI-resistant), were used as xenograft tumor models in female Rag2 mice. The mice were 6 to 8 weeks of age and weighed 18-23 grams. 10 mice were used per group.
Cisplatin was used in normal saline at a dose of 5 mg/kg. Administration was intravenous.
Dianhydrogalactitol was used in 0.9% sodium chloride for injection at 1.5 mg/kg to 6 mg/kg. Administration was intraperitoneal.
Treatment was initiated at a tumor volume of 100 mm^3 to 150 mm^3.
On day 0, tumor cells were implanted subcutaneously into mice in a volume of 50 μL in Matrigel™ using a 28-gauge needle; injection of the tumor cells was in the back of the mice. Mice were randomly assigned to groups based on tumor volume.
(§1) Tumor growth was monitored by measuring tumor dimensions with calipers beginning on the first day of treatment. Tumor length and width measurements were obtained each Monday, Wednesday, and Friday. Tumor volumes were calculated according to the equation L×W^2/2 with the length (in mm) being defined as the longer axis of the tumor. Animals were weighed at the time of tumor measurement. Tumors were allowed to grow to a maximum of 800 mm^3 before termination.

[2] = Tolerability in A549 tumor-bearing Rag2 mice (body weight, CBC, clinical observations)
Procedure: as §1
All animals had blood collected by cardiac puncture at termination for CBC (complete blood count) with differentiation.
In particular, signs of ill-health were based on body weight loss, change in appetite, and behavioral signs such as altered gait, lethargy, and gross manifestations of stress. If signs of severe toxicity or tumor-related illness were seen, the animals were terminated by isoflurane overdose followed by CO2 asphyxiation, and a necropsy was performed to assess other signs of toxicity. The following organs were examined: liver, gall bladder, spleen, lung, kidney, heart, intestine, lymph nodes, and bladder. Any unusual findings were noted.

[3] = Mischler et al. 1979; cited from earlier work
[4] = GBM chemotherapy, historical data; cited from earlier work
[5] = cisplatin 5 mg/kg Q7D x 3 i.v. (group 2)

SMILES: O=NN(CCCl)C(=O)NCCCl [Carmustine, carmustine, reference compound]
- Median O.S. (XRT + Chemo) (GBM): 40-50 weeks

SMILES: N.N.[Cl][Pt][Cl] [cisplatin, reference compound]
- day on which a mean tumor volume of 400 mm^3 was reached [1, 5]: 66 days
- number of animals remaining on study on day 70 [1, 5]: 6/10
- tumor doubling time [1, 5]: 17
- day on which a mean tumor volume of 200 mm^3 was observed ([1]; cisplatin 5 mg/kg Q7D x 3 i.v. (group 2), days post-inoculation): 49 days
- tumor growth delay compared to untreated controls ([1]; cisplatin 5 mg/kg i.v. (positive control)): 4 days
- body weight loss ([2]; cisplatin 5 mg/kg (group 2)): body weight loss was observed
- tolerability of the dosage ([2]; cisplatin 5 mg/kg, 1 mouse unable to receive the last dose): may also be near the MTD

SMILES: O[C@H]([C@H](O)[C@@H](O)CBr)[C@H](O)CBr [dibromodulcitol]
- absorption by the oral route [3]: rapid and fairly complete

SMILES: Cn1nnc2c(C(N)=O)ncn2c1=O [temozolomide, reference compound]
- DLT [4]: Hematologic
- Nadir [4]: 21 to 28 days
- Recovery [4]: Within 14 days
